Like-named read-outs stand apart in the source and are kept apart here.
Experiments:
RNA polymerase II [1] = molecular target: T1, RNA polymerase II (Homo sapiens, UniProt P24928); type: biochemical; settings: for IC50: qPCR, read-out: IC50 (RNA synthesis)
T1 construct: a well-defined nuclear extract providing the RNA polymerase II and a basal set of transcription factors; purchased Promega; host or cells: HeLa cell nuclear extract (endogenous enzyme)

RNA polymerase II [2] = molecular target: T1, RNA polymerase II; assay: In vitro transcription (HeLaScribe nuclear extract) with primer extension and PCR gel detection; type: biochemical
Experimental: Transcription reactions were set up as using the Promega HeLaScribe Nuclear Extract in vitro Transcription System were set up as described by the manufacturer with some modifications. The reaction volume was doubled to 50 μl. A master mix was prepared from a volume transcription buffer (20 mM HEPES, pH 7.9, 100 mM KCl, 0.2 mM EDTA, 0.5 mM DTT, 20% glycerol) corresponding to 22 μl minus the nuclear extract volume, MgCl2 to a final concentration of 3 mM, 40 Units RNase inhibitor, DNA template (1 μg pEGFP-N1 plasmid or 150 ng linear DNA fragment CMV-EGFP, respectively) and the nuclear extract following the manufacturer’s recipe. Aliquots of the master mix were transferred into reaction tubes containing different α-amanitin concentrations or water and incubated for 20 min at room temperature. Standard transcription reactions containing no α-amanitin were referred as ‘positive’, reactions containing α-amanitin or other inhibitors as ’inhibited’. A standard reaction containing no α-amanitin/inhibitors but also no NTPs was used as a ‘negative control transcription’. […]
The purified RNA was once more DNase-treated using the Epicentre BaselineZero DNase kit as recommended by the manufacturer, 8.8 μl of the RNA being digested in a final volume of 10 μl. […] After amplification, the products were analyzed by gel electrophoresis onto 1.5% agarose.

RNA polymerase II [3] = molecular target: T1, RNA polymerase II; assay: In vitro transcription with primer extension and qPCR (EGFP-LNA1 probe) detection, pEGFP-N1 / CMV-EGFP templates; type: biochemical
Experimental: Transcription reactions were set up as using the Promega HeLaScribe Nuclear Extract in vitro Transcription System were set up as described by the manufacturer with some modifications. The reaction volume was doubled to 50 μl. A master mix was prepared from a volume transcription buffer (20 mM HEPES, pH 7.9, 100 mM KCl, 0.2 mM EDTA, 0.5 mM DTT, 20% glycerol) corresponding to 22 μl minus the nuclear extract volume, MgCl2 to a final concentration of 3 mM, 40 Units RNase inhibitor, DNA template (1 μg pEGFP-N1 plasmid or 150 ng linear DNA fragment CMV-EGFP, respectively) and the nuclear extract following the manufacturer’s recipe. Aliquots of the master mix were transferred into reaction tubes containing different α-amanitin concentrations or water and incubated for 20 min at room temperature. Standard transcription reactions containing no α-amanitin were referred as ‘positive’, reactions containing α-amanitin or other inhibitors as ’inhibited’. A standard reaction containing no α-amanitin/inhibitors but also no NTPs was used as a ‘negative control transcription’. The reactions were started by the addition of the NTP mix to a final concentration of 400 μM each, except for the negative control where water was added. After incubating for 30 min at 30°C, the reactions were stopped by diluting with 400 μl of the RLT buffer from the Qiagen RNeasy Micro kit and stored at −80°C until proceeding with RNeasy cleanup. This was performed as recommended by the manufacturer, including on-column DNase treatment but without the addition of carrier RNA. The RNA was eluted using 15 μl water and stored at −80°C.
The purified RNA was once more DNase-treated using the Epicentre BaselineZero DNase kit as recommended by the manufacturer, 8.8 μl of the RNA being digested in a final volume of 10 μl. As a second negative control, 50 ng of the linear DNA fragment CMV-EGFP were directly DNase-digested and further processed as the RNA samples (‘DNase control’). For reverse transcription with the Qiagen Sensiscript RT kit, 2 μl of the digestion reaction and 1 μM EGFPrev1 primer (Table 1) were used in a final reaction volume of 20 μl. After reaction, 1 μl of the reverse transcription mix was transferred to PCR tubes containing 24 μl PCR mix aliquots. The standard PCR amplification was performed using the Epicentre Failsafe PCR system with the Mix A and the EGFPrev1 and EGFPfrw1 (Table 1) primer mix. Positive PCR control reactions contained 50 ng pEGFP-N1 plasmid; negative PCR controls contained no DNA. After amplification, the products were analyzed by gel electrophoresis onto 1.5% agarose.
For quantitation using SYBR detection, the Qiagen QuantiFast SYBR green qPCR kit was used. 1 μl of the reverse transcription mix was amplified in 25 μl reaction mix containing 500 nM of each EGFP-rev1 and EGFP-frw1 primer. For quantitation using the sequence-specific LNA probe EGFP-LNA1 at 250 nM, same primer set as well as an alternative primer set (EGFPfrw2 and EGFPrew2, Table 1) at 500 nM each and Sigma Jumpstart Taq ReadyMix for qPCR were used. 2 μl of the reverse transcription reaction were diluted into qPCR reactions with a final volume of 20 μl and qPCR performed in a Bio-Rad DNAEngine lightcycler. A qPCR standard curve was prepared from the CMV-EGFP DNA fragment and used for RNA copy number calculations. The amount of RNA in the inhibited probes was related to the RNA amount detected for the positive transcription reaction.

RNA polymerase II [4] = molecular target: T1, RNA polymerase II; assay: biochemical; settings: for IC50: QuantiGene, read-out: IC50 (RNA synthesis)
RNA polymerase II [5] = settings: cited from earlier work
[6] = 200 nM, template HS-DNA_mut (TATA box mutated)

SMILES: CN1CC[C@H](c2c(O)cc(O)c3c(=O)cc(-c4ccccc4Cl)oc23)[C@H](O)C1 [flavopiridol]
- IC50 (RNA polymerase II [1]; HS-DNA_long template, 10 min at 30°C, second set of reactions): 940 nM
- IC50 (RNA polymerase II [1]; standard HS-DNA template, 30 min at 30°C, first set of reactions): > 125000 nM

SMILES: CC[C@H](C)[C@@H]1NC(=O)CNC(=O)[C@@H]2Cc3c([nH]c4cc(O)ccc34)[S@+]([O-])C[C@H](NC(=O)CNC1=O)C(=O)N[C@@H](CC(N)=O)C(=O)N1C[C@H](O)C[C@H]1C(=O)N[C@@H]([C@@H](C)[C@@H](O)CO)C(=O)N2 [α-amanitin]
- inhibitory effect, short incubation vs standard (times lower) (RNA polymerase II [1]; 10 min, HS-DNA_long vs 30 min, standard template): ca. 10 ×
- inhibitory effect on transcription (PCR product on gel) (RNA polymerase II [2]; linear CMV-EGFP template, 400, 100 and 20 μM, Figure 2B): gradually increasing inhibitory effects
- amount of PCR product after transcription (RNA polymerase II [2]; pEGFP-N1 plasmid template, 100 μM, Figure 2A): clearly diminished amount of PCR product
- qPCR C(T) value of inhibited transcription (RNA polymerase II [3]; linear CMV-EGFP template, 2 μM, uninhibited C(T) 16.1, Figure 3B): 24.5
- qPCR C(T) value of inhibited transcription (RNA polymerase II [3]; linear CMV-EGFP template, 20 μM, uninhibited C(T) 16.1, Figure 3B): 28.1
- qPCR C(T) value of inhibited transcription (RNA polymerase II [3]; linear CMV-EGFP template, 50 μM, uninhibited C(T) 16.1, Figure 3B): 37.0
- qPCR C(T) value of inhibited transcription (RNA polymerase II [3]; linear CMV-EGFP template, 100 μM, uninhibited C(T) 16.1, Figure 3B, C): 27.9
- qPCR C(T) value of inhibited transcription (RNA polymerase II [3]; pEGFP-N1 plasmid template, 100 μM, uninhibited C(T) 17.6 / 18.0, Figure 3A, C): 21.7
- inhibition of transcription efficacy (RNA polymerase II [4]; 200 nM, both templates (standard HS-DNA and TATA box mutant)): 88 ± 1%
- % RNA synthesis (compared to respective positive control) (RNA polymerase II [4]; [6]): 12% ± 1%
- Signal (RLU average) (RNA polymerase II [4]; [6]): 130255 RLU
- % RNA synthesis (compared to respective positive control) (RNA polymerase II [4]; 200 nM, template HS-DNA_std): 12% ± 1%
- Signal (RLU average) (RNA polymerase II [4]; 200 nM, template HS-DNA_std): 161585 RLU
- IC50 (RNA polymerase II [4]; Bead-HS-DNA template, Figure 5C): 5700 nM
- IC50 (RNA polymerase II [4]; HS-DNA_long template, 10 min at 30°C, Figure 6C): 54 nM
- IC50 (RNA polymerase II [4]; standard HS-DNA template, 30 min at 30°C, Figure 6A): 4 nM

SMILES: CCC(C)C1NC(=O)CNC(=O)C2Cc3c([nH]c4cc(OC)ccc34)[S+]([O-])CC(NC(=O)CNC1=O)C(=O)NC(CC(N)=O)C(=O)N1CC(O)CC1C(=O)NC(C(C)C(C)O)C(=O)N2 (stereo not shown) [6′–O-methyl-γ-amanitin]
- potency as RNA polymerase II inhibitor relative to α-amanitin (less potent) (RNA polymerase II [5]): about two-fold
